Literature values, collected in the PKSmart pharmacokinetics tables (Seal et al. 2025).

Experiment: Lombardo, Berellini, Obach 2018, Drug Metab Dispos 46:1466, doi 10.1124/dmd.118.082966
Details: human; for MRT / Vd / clearance / half-life: in vivo, iv; for fraction unbound: plasma

Row | SMILES | MRT [h] | Vd [L/kg] | clearance [mL/min/kg] | half-life [h] | fraction unbound
1 | CCCCCCCCCCCCCCC[C@@H](O)[C@H](C)N | 8.89 | 30.7 | 57.6 | 29.7 | –
2 | C[C@@H]([C@@H](O)c1ccc(O)cc1)N1CCC(O)(c2ccccc2)CC1 | 2.6 | 4.4 | 27 | 3.7 | 0.63
3 | CCn1cc(C(=O)O)c(=O)c2cnc(N3CCNCC3)nc21 | 5.15 | 0.88 | 2.84 | 3.69 | 0.7
4 | CSCC(NC(=O)COc1cccc2cnccc12)C(=O)NC(Cc1ccccc1)C(O)C(=O)N1CSCC1C(=O)NC(C)(C)C (centres undefined) | 0.17 | 0.11 | 10.5 | 0.44 | –
5 | COc1ccc(Cl)cc1C(=O)NCCc1ccc(S(=O)(=O)NC(=O)NC2CCCCC2)cc1 | 1.6 | 0.08 | – | 2.2 | 0.021
6 | CN[C@@H]1[C@@H](O)[C@@H](O[C@@H]2[C@@H](O)[C@H](O[C@H]3OC(CN)=CC[C@H]3N)[C@@H](N)C[C@H]2N)OC[C@]1(C)O | 3.2 | 0.19 | 1 | 2.4 | 0.15
7 | COc1c(C)cc2c(c1O)[C@@H]1[C@@H]3Cc4c(OC(C)=O)c(C)c5c(c4[C@H](CNC(=O)/C=C/c4cccc(C(F)(F)F)c4)N3[C@@H](O)[C@H](C2)N1C)OCO5 | 17.5 | 12.6 | 12 | 22.2 | –
8 | Cn1c(=N)c(NC(=O)NCCN)cn1CC1=C(C(=O)O)N2C(=O)C(=NC(=O)C(NOC(C)(C)C(=O)O)c3nsc(N)n3)[C@H]2SC1 (some centres undefined) | 2.39 | 0.17 | 1.16 | 2.58 | 0.81
9 | Nc1nc(=O)c2nc(CNc3ccc(C(=O)NC(CCC(=O)O)C(=O)O)cc3)cnc2[nH]1 (centres undefined) | 3.1 | 9.7 | 52 | 2.6 | 0.5
10 | COc1ccc(-n2nc(C(N)=O)c3c2C(=O)N(c2ccc(N4CCCCC4=O)cc2)CC3)cc1 | – | 0.3 | 0.8 | 12 | –
11 | CC(=O)Nc1cccc(-n2c(=O)n(C3CC3)c(=O)c3c(Nc4ccc(I)cc4F)n(C)c(=O)c(C)c32)c1 | 304 | 13.9 | 0.8 | 229 | –
12 | CCC1=C[C@@H]2CN(CCc3c([nH]c4ccccc34)[C@@](C(=O)OC)(c3cc4c(cc3OC)N(C)[C@H]3[C@@](O)(C(=O)OC)[C@H](OC(C)=O)[C@]5(CC)C=CCN6CC[C@]43[C@@H]65)C2)C1 | 17 | 12 | 12 | 18 | –
13 | COc1cc(NC(C)CCCN)c2ncccc2c1 (centres undefined) | 11 | 4 | 5.8 | 7.1 | –
14 | C/C=C/c1cc(OC)c(OC)cc1OC | 1.9 | 1 | 8.8 | 3.7 | –
15 | Nc1nc(Cl)nc2c1ncn2[C@@H]1O[C@H](CO)[C@@H](O)[C@@H]1F | 3.8 | 1.75 | 7.7 | 4 | –
16 | CC(=O)O[C@H]1C[C@@]2(C)[C@@H](C[C@@H](O)[C@H]3[C@]4(C)CC[C@@H](O)[C@@H](C)[C@@H]4CC[C@]32C)/C1=C(/CCC=C(C)C)C(=O)O | 10.6 | 0.23 | 0.35 | 9.8 | 0.02
17 | C[C@H](O)C1C(=O)N2C(C(=O)O)=C(S[C@H]3CN[C@H](CNS(N)(=O)=O)C3)[C@@H](C)C12 (some centres undefined) | – | – | – | 1.2 | 0.92
18 | CCCC(C)C1(CC)C(=O)NC(=S)NC1=O (centres undefined) | 2.4 | 1.2 | 8.2 | 2 | 0.14
19 | Oc1c(C2=CC[C@@H](c3ccc(Cl)cc3)CC2)c(O)c2ccccc2c1O | 67 | 0.6 | 0.15 | 63 | 0.001
20 | CN1CCN(C(c2ccccc2)c2ccccc2)CC1 | 15.5 | 16.5 | 14.5 | 13.5 | –
21 | Cc1cc(Nc2cc(N3CCN(C)CC3)nc(Sc3ccc(NC(=O)C4CC4)cc3)n2)n[nH]1 | 4.5 | 5.1 | 18.4 | 8.4 | –
22 | C[C@@H]([C@@](O)(Cn1cncn1)c1ccc(F)cc1F)S(C)(=O)=O | 54 | 0.62 | 0.19 | 49 | –
23 | CNC1=Nc2ccc(Cl)cc2C(c2ccccc2)=[N+](O)C1 | 11 | 0.25 | – | 8.3 | –

Row | SMILES | MRT [h] | Vd [L/kg] | clearance [mL/min/kg] | half-life [h] | fraction unbound
24 | CC(=O)Nc1c(I)c(NC(C)=O)c(I)c(C(=O)O)c1I | 2.6 | – | 1.7 | – | 1
25 | CCC[C@@H]1CC(C(=O)N[C@@H]([C@H]2O[C@H](SC)[C@H](O)[C@@H](O)[C@H]2O)[C@@H](C)O)N(C)C1 (some centres undefined) | 7.5 | 1 | 2.1 | 5.6 | –
26 | COc1ccc([C@@H]2Sc3cc(Cl)ccc3N(CCN(C)C)C(=O)C2OC(C)=O)cc1 (some centres undefined) | 12.3 | 9.7 | 13.7 | 10.6 | 0.1
27 | COc1ccc2cc1Oc1ccc(cc1)C[C@H]1c3cc(c(OC)cc3CCN1C)Oc1c(OC)c(OC)c(Br)c3c1[C@H](C2)N(C)CC3 | 88.2 | 51 | 9.6 | 59.4 | 0.22
28 | CS(=O)(=O)OC[C@H](O)[C@@H](O)COS(C)(=O)=O | 2 | 0.59 | 4.9 | 1.83 | –
29 | NC(=O)c1cc[n+](CC2=C(C(=O)O)N3C(=O)C(NC(=O)C(c4ccccc4)S(=O)(=O)[O-])[C@H]3SC2)cc1 (some centres undefined) | 2.47 | 0.29 | 1.96 | 1.64 | –
30 | CN1CCN(CCCN2c3ccccc3Sc3ccc(Cl)cc32)CC1 | 23 | 22 | 16 | 9 | –
31 | Nc1nc2[nH]cc(CCc3ccc(C(=O)NC(CCC(=O)O)C(=O)O)cc3)c2c(=O)[nH]1 (centres undefined) | 1.92 | 0.15 | 1.3 | 1.85 | –
32 | COc1ccc2c(c1)[C@@H]1C[C@]1(C(=O)N1[C@@H]3CC[C@H]1CN(C)C3)Cn1c-2c(C2CCCCC2)c2ccc(C(=O)NS(=O)(=O)N(C)C)cc21 | 6.38 | 0.5 | 1.33 | 5.38 | 0.01
33 | O=C(O)CCCc1ccc(N(CCCl)CCCl)cc1 | 1.5 | 0.26 | 2.8 | 1.1 | –
34 | COc1cc(Cc2cnc(N)nc2N)c2cc(Cc3c(C(=O)N(C)C)[nH]c4ccc(Cl)cc34)oc2c1OC | 11.3 | 5.06 | 7.49 | 44.5 | –
35 | Cc1cc(O)c2c(=O)c3c(O)cc(O)c4c5c(O)cc(O)c6c(=O)c7c(O)cc(CO)c8c1c2c(c34)c(c65)c78 | 15 | 0.56 | 0.62 | 20 | –
36 | CN[C@@H]1CCc2[nH]c3ccc(C(N)=O)cc3c2C1 | 22 | 3.6 | 2.5 | 24 | –
37 | C[C@H](/C=C/[C@H](C)C(C)(C)O)[C@H]1CC[C@H]2/C(=C/C=C3C[C@@H](O)C[C@H](O)C3)CCC[C@]12C | 7.7 | 0.41 | 0.89 | 5.3 | –
38 | COc1ccccc1N1CCN(C[C@@H](O)COc2cccc3ccccc23)CC1 | – | – | 11 | 3.3 | 0.008
39 | CC(=O)N(CC[C@@](CCN1CCCCC1)(C(N)=O)c1ccccc1Cl)C(C)C | 7.9 | 2.6 | 5.43 | 12 | –
40 | CCCC(=O)N1CCCN(c2nc(N)c3cc(OC)c(OC)cc3n2)CC1 | 2.5 | 0.72 | 4.8 | 2 | 0.06
41 | CC1=NS(=O)(=O)c2cc(Cl)ccc2N1 | 58 | 0.21 | 0.06 | 48 | –
42 | NCC(=O)CCC(=O)O | 1.06 | 0.12 | 1.88 | 0.83 | 0.88
43 | CC/C=C\C/C=C\C/C=C\C/C=C\C/C=C\C/C=C\CCC(=O)OC(C(=O)O[C@H]1C[C@@]2(O)[C@@H](OC(=O)c3ccccc3)[C@@H]3[C@]4(OC(C)=O)CO[C@@H]4C[C@H](O)[C@@]3(C)C(=O)C(OC(C)=O)=C(C1C)C2(C)C)[C@@H](NC(=O)c1ccccc1)c1ccccc1 (some centres undefined) | 45 | – | 0.025 | 60 | 0.0038
44 | CC1(C)C(\C=C/C=C/C=C/C=C2\N(CCCCS(=O)(=O)O)c3ccc4ccccc4c3C2(C)C)=[N+](CCCCS(=O)(=O)[O-])c2ccc3ccccc3c21 | 0.086 | 0.035 | 6.8 | 0.065 | 0.05
45 | CCC#CC[C@H](C)[C@H](O)C#C[C@H]1[C@H]2CC(=CCOCCCC(=O)O)C[C@H]2C[C@H]1O | 0.59 | 2.4 | 66.2 | 0.41 | –
46 | Cn1c(CCCC(=O)O)nc2cc(N(CCCl)CCCl)ccc21 | 0.81 | 0.22 | 4.49 | 0.41 | 0.05

Row | SMILES | MRT [h] | Vd [L/kg] | clearance [mL/min/kg] | half-life [h] | fraction unbound
47 | Cc1nc(C#Cc2ccnc(Cl)c2)c(C)n1-c1ccc(F)cc1 | 57.4 | 9.7 | 2.8 | 78.9 | 0.01
48 | CC(C)NCC(O)c1cc(O)cc(O)c1 (centres undefined) | 7.14 | 6.03 | 14.1 | 6.41 | 0.9
49 | CN(CC(O)=NO)C(=O)C1CCCCC1C(=O)O (centres undefined) | 2.8 | 1 | 6.3 | 2.6 | 1
50 | Clc1cccc(Cl)c1NC1=NCCN1 | 14 | 3.3 | 4 | 7.6 | 0.56
51 | CC[C@@]1(O)C(=O)OCc2c1cc1n(c2=O)Cc2c-1nc1cc3c(cc1c2CN1CCN(C)CC1)OCCO3 | 3.5 | 4.77 | 25.1 | 3.54 | –
52 | CC(NC(CCc1ccccc1)C(=O)O)C(=O)N1CCCC1C(=O)O (centres undefined) | 4 | 0.38 | 1.6 | 39 | –
53 | C=CC[N@@+]12CC[C@@]34c5ccccc5N5C=C6[C@H]7C[C@H]8[C@@]9(CC[N@@+]8(CC=C)C/C7=C/CO)c7ccccc7N(C=C([C@@H](C[C@@H]31)/C(=C\CO)C2)[C@H]54)[C@@H]69 | 4.1 | 0.32 | 1.3 | 3.6 | –
54 | COC(=O)c1cnc2n1CCc1ccccc1C2=C1CCN(CCc2ccc(OCc3ccc4ccccc4n3)cc2)CC1 | 7.1 | 6.03 | 14.1 | 10.6 | 0.001
55 | O=NNc1cnccn1 | 0.29 | 0.31 | 15.1 | 0.38 | –
56 | CC(=O)Oc1ccc2c3c1O[C@H]1[C@@H](OC(C)=O)C=C[C@H]4[C@@H](C2)N(C)CC[C@@]341 | 0.1 | 1.31 | 212 | 0.062 | –
57 | CSCCNc1nc(SCCC(F)(F)F)nc2c1ncn2[C@@H]1O[C@H](CO[P@](=O)(O)O[P@](=O)(O)C(Cl)(Cl)P(=O)(O)O)[C@@H](O)[C@H]1O | 0.07 | 0.035 | 9.06 | 0.14 | 0.02
58 | Oc1cc2cc(CCN3CCN(c4nsc5ccccc45)CC3)c(Cl)cc2[nH]1 | 3.3 | 1 | 5.1 | 3.1 | –
59 | CCN(CC)CC#CCOC(=O)C(O)(c1ccccc1)C1CCCCC1 (centres undefined) | 2.7 | 0.85 | 5.1 | 7.2 | 0.0034
60 | CC(C)[C@@H](CC[C@@H](C)[C@H]1CC[C@H]2[C@@H]3[C@H](O)C[C@H]4C[C@@H](NCCCNCCCCN)CC[C@]4(C)[C@H]3CC[C@]12C)OS(=O)(=O)O | 3.2 | 0.23 | 1.2 | 9.5 | –
61 | C=CCOc1ccccc1OC[C@H](O)CNC(C)C | 1.56 | 0.72 | 7.7 | 1.09 | 0.19
62 | CC1(C)SC2C(NC(=O)C(NC(=O)c3cnc4cccnc4c3O)c3ccccc3)C(=O)N2C1C(=O)O (centres undefined) | 1.4 | 0.16 | 1.9 | 1.2 | 0.1
63 | CC(C)[N@+]1(C)[C@H]2CC[C@H]1C[C@H](OC(=O)C(c1ccccc1)C1CCCC1)C2 (some centres undefined) | 2.48 | 1.25 | 8.41 | 3.3 | –
64 | Clc1cccc(N2CCNCC2)c1 | 7 | 2.5 | 6.1 | 4.7 | –
65 | CC(C)(C)OC(=O)NC1CCCCC/C=C\[C@@H]2C[C@@]2(C(=O)NS(=O)(=O)C2CC2)NC(=O)C2C[C@@H](OC(=O)N3Cc4cccc(F)c4C3)CN2C1=O (some centres undefined) | 0.32 | 0.22 | 11.5 | 1.81 | 0.02
66 | O=C(NCCNCC(O)COc1ccc(O)cc1)N1CCOCC1 (centres undefined) | 3.6 | 0.64 | 3 | 7.7 | –
67 | CCC(C)CC(C)CCCCCCCCC(=O)NC1CC(O)C(NCCN)NC(=O)C2C(O)CCN2C(=O)C(C(O)CCN)NC(=O)C(C(O)C(O)c2ccc(O)cc2)NC(=O)C2CC(O)CN2C(=O)C(C(C)O)NC1=O (centres undefined) | – | – | – | – | 0.035
